From US20250009676A1, “COMPOSITIONS AND METHODS FOR LEVODOPA DELIVERY” (PURDUE PHARMA L.P., priority 2021, published 2025)
“Also recorded” adds a separate entry of the source.

Tests used:
[1] = after intranasal L-DOPA administration, Nedorubov et al; cited from earlier work
[2] = Plasma pharmacokinetics of L-DOPA and dopamine after intranasal dosing; details: rat, 1.2 mg/kg
[3] = Brain levels of L-DOPA and dopamine after intranasal dosing; details: rat, 1.2 mg/kg, 2 hours post-dosing
Source text: All brain levels are reported after subtraction of basal levels.

N[C@@H](Cc1ccc(O)c(O)c1)C(=O)O [crystal L-DOPA, levodopa]
Cmax for L-DOPA in rat brain tissue [1]: 16.94±1.52
dopamine plasma concentration, single animals with a quantifiable value ([2]; GCPQ-L-DOPA: one rat, t=0.083 hours): 25 to 29 ng/mL
dopamine plasma concentration ([2]; limit of quantification 25 ng/ml, nearly all samples): below the limit of quantification
maximum plasma concentration of L-DOPA ([2]; plasma): 53.5 ± 22.7 ng/mL
time of maximum L-DOPA plasma concentration (Tmax) ([2]; plasma): 15 min
dopamine levels in the brain above basal levels (in words) [3]: below the LOQ; also recorded: below the level of detection
